Measured values as given in patent US10428082B2, “Triazole derivatives of melampomagnolide B and methods of use thereof” (BioVentures, LLC, priority 2016, dated 2019).

Assays:
Assay in all cases: NCI 60 growth inhibition
Format in all cases: cell-based, human
A498 = settings: A498, Renal Cancer
A549/ATCC = settings: Non-Small Cell Lung Cancer
BT-549 = settings: BT-549, Breast Cancer
CCRF-CEM = settings: Leukemia
COLO 205 = settings: COLO 205, Colon Cancer
EKVX = settings: Non-Small Cell Lung Cancer
HOP-62 = settings: HOP-62, Non-Small Cell Lung Cancer
HOP-92 = settings: HOP-92, Non-Small Cell Lung Cancer
HT29 = system: HT29
KM12 = settings: KM12, Colon Cancer
NCI-H23 = settings: NCI-H23, Non-Small Cell Lung Cancer
NCI-H322M = settings: Non-Small Cell Lung Cancer
OVCAR-3 = settings: OVCAR-3, Ovarian Cancer
OVCAR-4 = settings: OVCAR-4, Ovarian Cancer
OVCAR-5 = settings: OVCAR-5, Ovarian Cancer
OVCAR-8 = settings: OVCAR-8, Ovarian Cancer
RXF 393 = settings: RXF 393, Renal Cancer
SF-295 = settings: SF-295, CNS Cancer
SK-MEL-28 = settings: SK-MEL-28, Melanoma
SNB-75 = settings: SNB-75, CNS Cancer
T-47D = settings: Breast Cancer
TK-10 = settings: TK-10, Renal Cancer
UACC-257 = settings: UACC-257, Melanoma, Table 2

With `C=C1C(=O)O[C@H]2[C@H]1CC/C(Cn1cc(-c3cc(C)c(C)cc3C)nn1)=C\CC[C@@]1(C)O[C@@H]21` [JVM 4-50] the GI50 (A498; Table 2) was 1040 nM, the GI50 (A549/ATCC; Table 2) was 1730 nM and the GI50 (BT-549; Table 2) was 750 nM. The GI50 (CCRF-CEM; Table 2) was 450 nM, the GI50 (COLO 205; Table 2) was 640 nM and the GI50 (EKVX; Table 2) was 1220 nM. The GI50 (HOP-62; Table 2) was 1770 nM, the GI50 (HOP-92; Table 2) was 430 nM and the GI50 (HT29; HT-29, Colon Cancer, Table 2) was 500 nM. The GI50 (KM12; Table 2) was 2310 nM, the GI50 (NCI-H23; Table 2) was 1770 nM and the GI50 (NCI-H322M; Table 2) was 11100 nM. For the same compound, the GI50 (OVCAR-3; Table 2) was 1030 nM, the GI50 (OVCAR-4; Table 2) was 700 nM and the GI50 (OVCAR-5; Table 2) was 1740 nM. The GI50 (OVCAR-8; Table 2) was 920 nM, the GI50 (RXF 393; Table 2) was 960 nM and the GI50 (SF-295; Table 2) was 6440 nM. For the same compound, the GI50 (SK-MEL-28; Table 2) was 1400 nM, the GI50 (SNB-75; Table 2) was 520 nM and the GI50 (T-47D; Table 2) was 530 nM. The GI50 (TK-10; Table 2) was 1460 nM and the GI50 (UACC-257) was 1290 nM.

For `C=C1C(=O)O[C@H]2[C@H]1CC/C(Cn1cc(-c3ccsc3)nn1)=C\CC[C@@]1(C)O[C@@H]21` [JVM 4-53], the GI50 (A498; Table 3) was 2650 nM, the GI50 (A549/ATCC; Table 3) was 8610 nM and the GI50 (BT-549; Table 3) was 1800 nM. It also gave a GI50 (CCRF-CEM; Table 3) of 1630 nM, a GI50 (COLO 205; Table 3) of 1450 nM and a GI50 (EKVX; Table 3) of 2330 nM. The GI50 (HOP-62; Table 3) was 4900 nM, the GI50 (HOP-92; Table 3) was 1660 nM and the GI50 (HT29; HT29, Colon Cancer, Table 3) was 1660 nM. The GI50 (KM12; Table 3) was 6450 nM, the GI50 (NCI-H23; Table 3) was 1820 nM and the GI50 (NCI-H322M; Table 3) was 10500 nM. It also gave a GI50 (OVCAR-3; Table 3) of 1060 nM, a GI50 (OVCAR-4; Table 3) of 2480 nM and a GI50 (OVCAR-5; Table 3) of 2290 nM. For the same compound, the GI50 (OVCAR-8; Table 3) was 2960 nM, the GI50 (RXF 393; Table 3) was 1070 nM and the GI50 (SF-295; Table 3) was 9610 nM. The GI50 (SK-MEL-28; Table 3) was 1810 nM, the GI50 (SNB-75; Table 3) was 3230 nM and the GI50 (T-47D; Table 3) was 2030 nM. For the same compound, the GI50 (TK-10; Table 3) was 1520 nM.

Compound `C=C1C(=O)O[C@H]2[C@H]1CC/C(Cn1cc(-c3ccc(N)cc3)nn1)=C\CC[C@@]1(C)O[C@@H]21` [JVM 4-58] has a GI50 (A498; Table 3) of 10400 nM, a GI50 (A549/ATCC; Table 3) of 11900 nM and a GI50 (BT-549; Table 3) of 3050 nM. The GI50 (CCRF-CEM; Table 3) was 2000 nM, the GI50 (COLO 205; Table 3) was 1790 nM and the GI50 (EKVX; Table 3) was 3890 nM. It also gave a GI50 (HOP-62; Table 3) of 10200 nM, a GI50 (HOP-92; Table 3) of 2130 nM and a GI50 (HT29; HT29, Colon Cancer, Table 3) of 2140 nM. For the same compound, the GI50 (KM12; Table 3) was 11400 nM, the GI50 (NCI-H23; Table 3) was 2490 nM and the GI50 (NCI-H322M; Table 3) was 12600 nM. For the same compound, the GI50 (OVCAR-3; Table 3) was 1620 nM, the GI50 (OVCAR-4; Table 3) was 4900 nM and the GI50 (OVCAR-5; Table 3) was 6430 nM. The GI50 (OVCAR-8; Table 3) was 3040 nM, the GI50 (RXF 393; Table 3) was 1410 nM and the GI50 (SF-295; Table 3) was 12100 nM. The GI50 (SK-MEL-28; Table 3) was 2710 nM, the GI50 (SNB-75; Table 3) was 4980 nM and the GI50 (T-47D; Table 3) was 2230 nM. The GI50 (TK-10; Table 3) was 2250 nM.

`C=C1C(=O)O[C@H]2[C@H]1CC/C(Cn1cc(-c3ccccc3C(F)(F)F)nn1)=C\CC[C@@]1(C)O[C@@H]21` [JVM 4-59] showed a GI50 (A498; Table 3) of 3860 nM, a GI50 (A549/ATCC; Table 3) of 7230 nM and a GI50 (BT-549; Table 3) of 2400 nM. It also gave a GI50 (CCRF-CEM; Table 3) of 760 nM, a GI50 (COLO 205; Table 3) of 1980 nM and a GI50 (EKVX; Table 3) of 2320 nM. It also gave a GI50 (HOP-62; Table 3) of 4730 nM, a GI50 (HOP-92; Table 3) of 1480 nM and a GI50 (HT29; HT29, Colon Cancer, Table 3) of 1790 nM. The GI50 (KM12; Table 3) was 5880 nM, the GI50 (NCI-H23; Table 3) was 1750 nM and the GI50 (NCI-H322M; Table 3) was 10800 nM. The GI50 (OVCAR-3; Table 3) was 1040 nM, the GI50 (OVCAR-4; Table 3) was 2770 nM and the GI50 (OVCAR-5; Table 3) was 2460 nM. It also gave a GI50 (OVCAR-8; Table 3) of 2230 nM, a GI50 (RXF 393; Table 3) of 1070 nM and a GI50 (SF-295; Table 3) of 10300 nM. It also gave a GI50 (SK-MEL-28; Table 3) of 1750 nM, a GI50 (SNB-75; Table 3) of 2970 nM and a GI50 (T-47D; Table 3) of 1700 nM. The GI50 (TK-10; Table 3) was 1710 nM.
